US20100016402A1, “UNIT DOSE FORMULATIONS OF KETOROLAC FOR INTRANASAL ADMINISTRATION” (Roxro Pharma, Inc., priority 2008, published 2010)
Where a name gives a salt, the structure may show the parent alone. One block for each molecule: values may come before it.

Experiments:
[1] = solubility of local anesthetic in ketorolac solution; format: physicochemical; settings: 15% ketorolac, not re-dispersed by heating or adjusting the pH
[2] = solubility in water at different pH
[3] = degradation of ketorolac in solution; format: physicochemical; settings: 1-keto analog proportional to amount of ketorolac and available oxygen
Excerpt: The amount of 1-keto analog produced is generally proportional to the amount of ketorolac in solution and available oxygen (e.g., in the head space of the container, such as those described in U.S. patent application Ser. No. 12/404,250, filed on Mar. 13, 2009, entitled, “Device for Intranasal Administration,”).

precipitation in the presence of ketorolac ([1]; 6% benzocaine solution): precipitation was observed
precipitation in the presence of ketorolac ([1]; 10% benzocaine solution): precipitation was observed
solubility ([2]; low pH): soluble
solubility in water ([2]; physiological pH ranges of 4.5 to 7.2): low solubility
Structure (SMILES): CCOC(=O)c1ccc(N)cc1 [benzocaine]

stability in solution (degradation products) [3]: produces several degradation products
Structure (SMILES): O=C(c1ccccc1)c1ccc2n1CCC2C(=O)O (stereo not shown) [ketorolac, 5-benzoyl-2,3-dihydro-1H-pyrrolizine-1-carboxylic acid]

pH of the solution in water [2]: about 1.5
solubility in water ([2]; water, pH not adjusted): soluble in water
Structure (SMILES): CCOC(=O)c1ccc(N)cc1 [benzocaine hydrochloride]
